Publication PMC9007462 (Journal of Medicinal Chemistry, 2022)

Molecular target: T1, Human ALDH1A1 (Homo sapiens, UniProt P00352)
T1 construct: made in house
T1 sequence (P00352 1-501): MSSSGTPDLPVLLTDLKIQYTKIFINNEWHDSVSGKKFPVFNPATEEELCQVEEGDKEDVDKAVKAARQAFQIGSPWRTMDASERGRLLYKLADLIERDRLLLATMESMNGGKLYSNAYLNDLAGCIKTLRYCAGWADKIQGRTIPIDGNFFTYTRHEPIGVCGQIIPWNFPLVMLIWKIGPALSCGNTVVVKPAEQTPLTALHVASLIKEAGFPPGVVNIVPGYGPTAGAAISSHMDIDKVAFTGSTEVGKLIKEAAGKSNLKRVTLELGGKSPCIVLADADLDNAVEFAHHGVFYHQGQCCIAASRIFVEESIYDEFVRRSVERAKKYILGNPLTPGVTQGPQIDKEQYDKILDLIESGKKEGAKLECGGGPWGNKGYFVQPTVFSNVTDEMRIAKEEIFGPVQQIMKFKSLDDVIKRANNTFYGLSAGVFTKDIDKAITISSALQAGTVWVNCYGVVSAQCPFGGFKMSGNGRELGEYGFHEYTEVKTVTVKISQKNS
Experiment: Inhibition screening, single point at 10 μM, ALDH1A1
Assay type: biochemical
Conditions: 10 μM compound; 5 μM hexanal (Figure S1)
Description: Human ALDH1A1, ALDH1A3, and ALDH3A1 were cloned and recombinantly expressed from the pET-30 Xa/LIC vector. Protein purification was achieved by affinity chromatography on a nickel-charged chelating Sepharose Fast Flow 5-mL column (His Trap column, Cytiva), which specifically binds the protein due to its N-terminal (His)6 tag, using an ÄKTA FPLC system (Cytiva), as previously described.[55] Enzymes including the His tag were stored at −80 °C in 20 mM Tris/HCl and 0.5 M NaCl, pH 8.0, until use. Reaction buffers were as follows: ALDH1A1 was assayed in 50 mM HEPES, 0.5 mM EDTA, and 0.5 mM DTT, pH 8.0; ALDH1A3 was assayed in 50 mM HEPES, 30 mM MgCl2, and 5 mM DTT, pH 8.0; and ALDH3A1 was assayed in 50 mM Tris–HCl and 5 mM DTT, pH 8.0. Activity under standard conditions was measured fluorimetrically at 25 °C using a Cary Eclipse (Varian) fluorimeter to follow the purification procedure and to check the enzyme concentration before each kinetic experiment. The fluorescence of NADH was characterized at 460 nm with excitation at 340 nm, and 5 μM NAD(P)H was added as an internal standard to obtain the absolute reaction rates.[55] Standard activity was measured at saturating concentrations of substrate using 30 μM hexanal (ALDH1A1), 250 μM hexanal (ALDH1A3), or 250 μM 4-NBA (ALDH3A1). NAD^+ was 500 μM for ALDH1A1 and ALDH1A3, and NADP^+ was 1 mM for ALDH3A1.
All compounds tested were dissolved in DMSO and assayed at a final concentration of 1% (v/v) DMSO. […] For the initial screening, the enzymatic activity was measured in 96-well plates (final volume of 200 μL) in a Victor 3 Multilabel Plate Reader (Perkin Elmer), by monitoring the fluorescence of the NAD(P)H produced during the reaction (excitation at 340 nm and emission at 460 nm). Alternatively, the enzymatic activity was measured in a Varian Cary 400 UV–vis spectrophotometer, by monitoring the increase in the absorbance of NAD(P)H at 340 nm (ε = 6.22 mM^–1·cm^–1) or in a Cary Eclipse Varian fluorimeter, as described above. […] For ALDH1A1, 5 μM hexanal (Sigma) was used. For ALDH1A3, 10 and 250 μM hexanal (Sigma) were used. For ALDH3A1, 4-NBA (Sigma) was used at 31 and 250 μM. All substrates were prepared in the corresponding assay buffer at a concentration of 2 mM and further diluted to reach the final concentrations required per experiment. The concentration of the enzyme was kept from 50- to 100-fold lower than that of the substrate for all enzymatic assays.

CCCN(CCC)c1ccc(C=O)cc1Br [Compound 14, 3-Bromo-4-(dipropylamino)benzaldehyde]
remaining ALDH1A1 activity: 45%
